Experimental data from patent publication US20200087269A1, “PROCESS FOR THE PRODUCTION OF OZANIMOD” (EGIS GYOGYSZERGYAR ZRT., priority 2017, published 2020).

Tests used:
[1] = X-ray powder diffraction after two DVS cycles (polymorph stability to humidity); assay type: physicochemical
Procedure: FIG. 5: The x-ray powder diffractogram of the ozanimod base Form I form after two DVS cycles (see example 6).
The x-ray powder diffraction measurements were performed as follows:
Device: PANalytical Empyrean x-ray powder diffractometer Measurement alignment: Transmission
Type: Empyrean long fine focussing, high resolution tube
Divergence slit: Fixed slit 1/2° Mirror: Focussing elliptical mirror Soller slit: 0.04 rad Diffusion inhibitor slit: Fixed slit 1/2°
Diffusion inhibitor slit: Programmable slit in fixed mode: 1/2° Soller slit: 0.04 rad
Type: Reflection-transmission, with rotatable sample holders Sample rotation speed: 1 rotation/second Direct beam catcher (“beam knife”): Transmission
Type: PIXcel 3D 1×1 area detector Operation mode: Scanning line detector (ID) operation mode Active detector window size: 3.3473° Sample preparation: samples placed between two Mylar sheets, without pulverising
Temperature: room temperature Accelerating voltage: 45 kV Anode heating current: 40 mA Scanning method: continuous (θ/θ) scanning Measurement range: 2.0000-34.9964° 2θ
Step duration: 109.650 seconds No of measurement cycles: 1 Measurement duration: ˜20 minutes

[2] = Dynamic vapour sorption (DVS) measurement; assay type: physicochemical; conditions: 25° C.
Procedure: Dynamic Vapour Sorption (DVS)
Device: TA Q5000SA dynamic vapour sorption analyser (DVS) Atmosphere: Flowing nitrogen Carrier gas flow rate: 200 mL/min N2
Balance house flow rate: 10 mL/min N2 Temperature maintained • 35° C. in balance house: Crucible type: Platinum 100 μl, open Measuring method: Custom
Measuring temperature: 25° C., isotherm Measurement range: Between 0% and 95% RH Initial relative humidity: 20% RH Measurement phases: Desorption-adsorption-desorption Step size: 5% RH Mass constant criterion: ≤0.01% for 5 minutes Maximum step length: 360 minutes Sampling frequency: 5 sec/point Number of cycles: 2
The dynamic vapour sorption (DVS) measurement of the ozanimod base Form I polymorph according to example 6

- polymorphic nature under air humidity ([1]; according to applicant's tests): does not change
- crystal structure after the two DVS cycles (x-ray powder diffractogram, FIG. 5 vs FIG. 3) ([1]; after two DVS cycles, 25° C., 0-95% RH): unchanged
- hygroscopicity ([2]; DVS, 0-95% RH): slightly hygroscopic
- sorption isotherm on repeating the cycle ([2]; second DVS cycle): did not change
- mass increase of the sample ([2]; under 95% relative humidity, first cycle): 0.6%
Compound: CC(C)Oc1ccc(-c2nc(-c3cccc4c3CC[C@@H]4NCCO)no2)cc1C#N [ozanimod base Form I polymorph, ozanimod]
- stability of the polymorph form / sensitivity to humidity ([1]; 25° C.): stable at 25° C., and not sensitive to humidity
- influence of the humidity of the air on the stability of the crystals ([1]; according to applicant's tests): does not influence the stability of the crystals
